Values belong to the molecule of their own block, whether it stands above or below them. Active and inactive are the calls of the source.
Columns and labels:
[1] = cAMP pathway inhibition in counterscreen cell line – TR-FRET cAMP detection, counter-screen for MC4R biased antagonist project, dose response (AID 602305); assay type: functional, cell-based;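 further: U2OS cells stimulated with forskolin near its EC80 as the cAMP inducer; potency is for inhibition of forskolin-stimulated cAMP signaling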
Melanocortin receptor 4 = Melanocortin receptor 4 (Homo sapiens, UniProt P32245); experiment: inhibitors of MC4R cAMP signaling – cell-based, TR-FRET, biased antagonists, dose response (AID 602298); assay type: functional;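 further: antagonist potency against agonist-stimulated cAMP production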
[2] = molecular target: T1, Mitochondrial peptide methionine sulfoxide reductase (Bos taurus, UniProt P54149); experiment: Absorbance-based biochemical high throughput dose response assay for activators of Methionine sulfoxide reductase A (MsrA).; assay type: functional
T1 sequence (P54149 whole entry): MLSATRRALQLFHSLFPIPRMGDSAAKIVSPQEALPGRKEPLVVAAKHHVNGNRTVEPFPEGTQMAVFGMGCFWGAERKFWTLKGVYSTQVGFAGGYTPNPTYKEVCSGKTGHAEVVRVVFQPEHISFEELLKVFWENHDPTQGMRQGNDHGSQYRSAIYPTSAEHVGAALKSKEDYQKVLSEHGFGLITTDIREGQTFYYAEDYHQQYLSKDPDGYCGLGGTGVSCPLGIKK

Large T antigen = Large T antigen (Simian virus 40, UniProt P03070); assay type: functional, Betapolyomavirus macacae;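 further: Confirmatory-stage PubChem screen for compounds that inhibit SV40 T antigen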
Insulin-degrading enzyme = molecular target: T2, Insulin-degrading enzyme (Homo sapiens, UniProt P14735); experiment: Dose Response: Fluorescence polarization-based cell-based high throughput dose response assay for inhibitors of insulin-degrading enzyme (IDE). [Related pubchem assays: 434962 (Primary screen (IDE inhibitors in singlicate)), 449730 (Counterscreen (Cytotoxicity in triplicate)), 435028 (Confirmation (IDE inhibitors in triplicate)), 434984 (Summary …; assay type: functional
T2 sequence (P14735 whole entry): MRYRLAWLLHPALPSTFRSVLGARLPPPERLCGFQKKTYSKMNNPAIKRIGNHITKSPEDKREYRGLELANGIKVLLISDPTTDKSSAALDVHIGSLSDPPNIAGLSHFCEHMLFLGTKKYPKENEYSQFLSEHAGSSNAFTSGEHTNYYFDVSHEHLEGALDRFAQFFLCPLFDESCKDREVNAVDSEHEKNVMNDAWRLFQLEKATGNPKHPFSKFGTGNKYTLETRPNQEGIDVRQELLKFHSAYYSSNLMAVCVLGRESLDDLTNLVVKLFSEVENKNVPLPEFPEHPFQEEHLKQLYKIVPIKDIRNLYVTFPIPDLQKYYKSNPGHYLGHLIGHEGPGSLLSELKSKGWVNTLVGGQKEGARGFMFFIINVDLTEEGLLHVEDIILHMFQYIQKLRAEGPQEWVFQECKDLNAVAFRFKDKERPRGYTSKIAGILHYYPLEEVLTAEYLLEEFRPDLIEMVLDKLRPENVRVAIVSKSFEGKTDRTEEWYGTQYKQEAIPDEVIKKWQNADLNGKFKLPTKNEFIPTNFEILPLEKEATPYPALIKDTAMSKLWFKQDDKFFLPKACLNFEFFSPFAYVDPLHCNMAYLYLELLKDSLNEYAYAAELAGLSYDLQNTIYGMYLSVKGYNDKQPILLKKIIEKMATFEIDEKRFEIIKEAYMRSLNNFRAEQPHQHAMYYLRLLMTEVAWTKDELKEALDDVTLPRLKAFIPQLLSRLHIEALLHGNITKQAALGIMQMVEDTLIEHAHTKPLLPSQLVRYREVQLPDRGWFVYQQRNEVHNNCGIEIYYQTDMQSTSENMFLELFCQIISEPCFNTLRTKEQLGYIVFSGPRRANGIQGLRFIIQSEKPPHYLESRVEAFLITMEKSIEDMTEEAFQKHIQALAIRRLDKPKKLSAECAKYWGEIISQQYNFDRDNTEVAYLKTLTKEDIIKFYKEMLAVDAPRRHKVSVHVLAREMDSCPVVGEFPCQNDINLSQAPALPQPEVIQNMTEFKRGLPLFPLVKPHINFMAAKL

[3] = molecular target: Glucose-6-phosphate 1-dehydrogenase (Homo sapiens, UniProt P11413); experiment: inhibition of Homo sapiens G6PD, dose series – biochemical, fluorescence, selectivity assay for P. falciparum G6PD inhibitor project, dose response (AID 504792); assay type: functional
[4] = Counterscreen for IDE inhibitors: Luminescence-based cell-based high throughput dose response assay to identify compounds that are cytotoxic to HEK cells. [Related pubchem assays: 434962 (Primary screen (IDE inhibitors in singlicate)), 449730 (Counterscreen (Cytotoxicity in triplicate)), 435028 (Confirmation (IDE inhibitors in triplicate)) …; assay type: functional; conditions: HEK293
[5] = molecular target: Potassium voltage-gated channel subfamily KQT member 2 (Rattus norvegicus, UniProt O88943); experiment: blockers of KCNQ2 channel current – cell-based, automated electrophysiology, set II, rat KCNQ2, dose response (AID 588637); assay type: functional
[6] = molecular target: Dual specificity tyrosine-phosphorylation-regulated kinase 1A (Homo sapiens, UniProt Q13627); assay type: functional;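 further: measured against DYRK1A as one member of a broad kinome profiling panel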
[7] = molecular target: Platelet-derived growth factor receptor beta (Homo sapiens, UniProt P09619); assay type: functional;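 further: value comes from a kinome panel, with PDGFRB tested as one panel member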
[8] = molecular target: Macrophage colony-stimulating factor 1 receptor (Homo sapiens, UniProt P07333); assay type: functional;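 further: value comes from the Navigating the Kinome screening panel, CSF1R member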
Aurora kinase A = molecular target: T3, Aurora kinase A (Homo sapiens, UniProt O14965); assay type: functional;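 further: value from the Navigating the Kinome kinase panel profiling, panel entry STK6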
T3 sequence (O14965 whole entry): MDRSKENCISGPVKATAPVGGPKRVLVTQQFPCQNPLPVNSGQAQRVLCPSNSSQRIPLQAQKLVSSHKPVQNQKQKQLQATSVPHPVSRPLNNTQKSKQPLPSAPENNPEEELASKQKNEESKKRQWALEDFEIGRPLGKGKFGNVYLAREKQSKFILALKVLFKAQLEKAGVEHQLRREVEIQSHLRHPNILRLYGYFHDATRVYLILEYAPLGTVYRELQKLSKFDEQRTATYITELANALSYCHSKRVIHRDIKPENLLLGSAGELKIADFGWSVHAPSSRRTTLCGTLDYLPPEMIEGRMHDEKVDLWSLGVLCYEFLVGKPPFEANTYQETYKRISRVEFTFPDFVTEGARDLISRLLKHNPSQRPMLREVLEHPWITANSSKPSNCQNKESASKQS

[9] = molecular target: T4, Tyrosine-protein kinase receptor TYRO3 (Homo sapiens, UniProt Q06418); assay type: functional;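 further: TYRO3 value obtained as one member of a kinome-wide profiling panel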
T4 sequence (Q06418 whole entry): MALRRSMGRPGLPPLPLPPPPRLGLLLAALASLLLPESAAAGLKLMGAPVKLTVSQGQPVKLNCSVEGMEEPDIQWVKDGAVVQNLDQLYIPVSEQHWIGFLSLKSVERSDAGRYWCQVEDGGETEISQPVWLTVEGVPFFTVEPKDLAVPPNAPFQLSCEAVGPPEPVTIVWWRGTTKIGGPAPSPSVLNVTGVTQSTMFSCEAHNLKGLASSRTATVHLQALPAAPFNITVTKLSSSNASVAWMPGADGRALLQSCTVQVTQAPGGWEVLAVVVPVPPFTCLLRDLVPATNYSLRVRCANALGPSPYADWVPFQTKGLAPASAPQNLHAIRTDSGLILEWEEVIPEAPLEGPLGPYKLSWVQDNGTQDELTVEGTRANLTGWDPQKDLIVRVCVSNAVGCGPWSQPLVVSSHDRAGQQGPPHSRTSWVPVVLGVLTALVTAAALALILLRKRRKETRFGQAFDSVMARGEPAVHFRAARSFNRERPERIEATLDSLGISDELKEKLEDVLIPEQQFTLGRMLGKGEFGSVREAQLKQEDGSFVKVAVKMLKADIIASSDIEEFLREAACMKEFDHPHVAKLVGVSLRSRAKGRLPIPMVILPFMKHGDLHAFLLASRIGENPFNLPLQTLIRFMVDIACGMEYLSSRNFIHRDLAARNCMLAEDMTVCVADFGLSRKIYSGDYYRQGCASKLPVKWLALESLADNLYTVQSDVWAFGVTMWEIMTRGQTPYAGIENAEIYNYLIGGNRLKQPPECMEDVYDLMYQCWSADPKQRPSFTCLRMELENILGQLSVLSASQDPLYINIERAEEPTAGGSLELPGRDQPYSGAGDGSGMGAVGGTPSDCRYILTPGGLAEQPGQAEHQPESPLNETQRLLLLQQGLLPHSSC

[10] = molecular target: cAMP-dependent protein kinase catalytic subunit alpha (Homo sapiens, UniProt P17612); assay type: functional
[11] = molecular target: Dual specificity protein kinase CLK4 (Homo sapiens, UniProt Q9HAZ1); assay type: functional
[12] = molecular target: Vascular endothelial growth factor receptor 2 (Homo sapiens, UniProt P35968); assay type: functional
[13] = molecular target: Cyclin-dependent kinase 19 (Homo sapiens, UniProt Q9BWU1); experiment: Navigating the Kinome. Panel member name: CDC2L6; assay type: functional
[14] = molecular target: Dual specificity tyrosine-phosphorylation-regulated kinase 1B (Homo sapiens, UniProt Q9Y463); experiment: Navigating the Kinome. Panel member name: DYRK1B; assay type: functional
[15] = molecular target: Cyclin-dependent kinase 9 (Homo sapiens, UniProt P50750); assay type: functional;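 further: value from the CDK9 entry of a kinome-spanning kinase panel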
[16] = molecular target: BDNF/NT-3 growth factors receptor (Homo sapiens, UniProt Q16620); assay type: functional;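 further: NTRK2 measured as one member of a broad kinome-wide kinase profiling panel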
[17] = molecular target: Protein kinase C theta type (Homo sapiens, UniProt Q04759); experiment: Navigating the Kinome. Panel member name: PRKCQ; assay type: functional
[18] = molecular target: Platelet-derived growth factor receptor alpha (Homo sapiens, UniProt P16234); experiment: Navigating the Kinome. Panel member name: PDGFRA; assay type: functional
[19] = molecular target: Dual specificity mitogen-activated protein kinase kinase 1 (Homo sapiens, UniProt Q02750); experiment: Navigating the Kinome. Panel member name: MAP2K1; assay type: functional
[20] = molecular target: Casein kinase I isoform alpha (Homo sapiens, UniProt P48729); assay type: functional
[21] = molecular target: Dual specificity mitogen-activated protein kinase kinase 2 (Homo sapiens, UniProt P36507); experiment: Navigating the Kinome. Panel member name: MAP2K2; assay type: functional
Focal adhesion kinase 1 = Focal adhesion kinase 1 (Homo sapiens, UniProt Q05397); assay type: functional;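 further: measured as one member of a kinome panel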
Activated CDC42 kinase 1 = Activated CDC42 kinase 1 (Homo sapiens, UniProt Q07912); experiment: Navigating the Kinome. Panel member name: ACK1; assay type: functional
[22] = molecular target: Leukocyte tyrosine kinase receptor (Homo sapiens, UniProt P29376); experiment: Navigating the Kinome. Panel member name: LTK; assay type: functional
[23] = molecular target: 5'-AMP-activated protein kinase catalytic subunit alpha-1 (Homo sapiens, UniProt Q13131); assay type: functional
[24] = molecular target: T5, cAMP-dependent protein kinase catalytic subunit PRKX (Homo sapiens, UniProt P51817); assay type: functional
T5 sequence (P51817 whole entry): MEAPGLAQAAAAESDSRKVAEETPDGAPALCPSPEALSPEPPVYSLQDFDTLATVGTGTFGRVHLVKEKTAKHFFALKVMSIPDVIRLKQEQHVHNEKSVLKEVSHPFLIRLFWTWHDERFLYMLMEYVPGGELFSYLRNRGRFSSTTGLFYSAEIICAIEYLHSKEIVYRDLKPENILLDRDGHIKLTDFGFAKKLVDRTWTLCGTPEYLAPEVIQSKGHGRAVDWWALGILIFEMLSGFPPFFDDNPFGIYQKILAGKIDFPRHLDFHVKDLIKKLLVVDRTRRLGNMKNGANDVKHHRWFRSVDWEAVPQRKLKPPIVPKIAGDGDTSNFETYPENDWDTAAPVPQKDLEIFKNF

[25] = molecular target: Cyclin-dependent kinase 5 (Homo sapiens, UniProt Q00535); assay type: functional;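 further: CDK5 measured as one member of a kinase profiling panel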
[26] = molecular target: Dual specificity protein kinase CLK2 (Homo sapiens, UniProt P49760); assay type: functional
[27] = molecular target: Macrophage-stimulating protein receptor (Homo sapiens, UniProt Q04912); experiment: Navigating the Kinome. Panel member name: MST1R; assay type: functional

Sequence of Vascular endothelial growth factor receptor 2 (P35968 whole entry): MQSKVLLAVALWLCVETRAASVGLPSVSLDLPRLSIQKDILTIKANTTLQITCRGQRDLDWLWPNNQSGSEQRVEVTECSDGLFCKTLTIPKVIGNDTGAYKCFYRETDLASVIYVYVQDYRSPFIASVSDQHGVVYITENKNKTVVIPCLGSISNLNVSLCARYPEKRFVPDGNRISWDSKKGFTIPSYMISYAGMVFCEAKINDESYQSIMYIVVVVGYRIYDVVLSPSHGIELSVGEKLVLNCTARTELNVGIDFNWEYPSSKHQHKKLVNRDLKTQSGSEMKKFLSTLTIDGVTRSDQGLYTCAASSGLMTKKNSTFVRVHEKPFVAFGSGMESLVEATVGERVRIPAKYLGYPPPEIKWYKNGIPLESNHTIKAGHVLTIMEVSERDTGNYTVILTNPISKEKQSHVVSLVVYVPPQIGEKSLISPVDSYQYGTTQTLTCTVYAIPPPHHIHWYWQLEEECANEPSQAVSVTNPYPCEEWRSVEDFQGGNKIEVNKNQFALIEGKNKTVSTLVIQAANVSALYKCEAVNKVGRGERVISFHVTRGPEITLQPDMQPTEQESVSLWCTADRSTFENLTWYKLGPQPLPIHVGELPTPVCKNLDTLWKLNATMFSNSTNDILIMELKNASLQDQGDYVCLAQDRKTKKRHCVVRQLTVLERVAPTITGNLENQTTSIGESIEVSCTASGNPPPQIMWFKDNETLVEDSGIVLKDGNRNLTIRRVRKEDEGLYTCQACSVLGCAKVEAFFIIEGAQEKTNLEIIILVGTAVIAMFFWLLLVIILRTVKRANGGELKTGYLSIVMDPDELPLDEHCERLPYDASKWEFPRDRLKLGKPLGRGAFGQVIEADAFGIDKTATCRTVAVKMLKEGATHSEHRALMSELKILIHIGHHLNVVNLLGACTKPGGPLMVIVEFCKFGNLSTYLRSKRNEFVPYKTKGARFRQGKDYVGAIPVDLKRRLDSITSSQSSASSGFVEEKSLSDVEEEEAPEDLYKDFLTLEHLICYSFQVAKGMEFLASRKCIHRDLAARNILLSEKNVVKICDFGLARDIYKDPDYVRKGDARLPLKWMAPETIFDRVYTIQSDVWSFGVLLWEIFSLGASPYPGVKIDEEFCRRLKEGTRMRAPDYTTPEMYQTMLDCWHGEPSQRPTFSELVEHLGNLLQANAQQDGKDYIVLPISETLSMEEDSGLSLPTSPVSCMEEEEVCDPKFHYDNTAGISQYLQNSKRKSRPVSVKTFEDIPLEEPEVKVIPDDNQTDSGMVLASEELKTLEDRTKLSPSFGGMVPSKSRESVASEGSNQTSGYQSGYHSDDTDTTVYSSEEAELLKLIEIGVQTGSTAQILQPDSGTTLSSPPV
Sequence of BDNF/NT-3 growth factors receptor (Q16620 whole entry): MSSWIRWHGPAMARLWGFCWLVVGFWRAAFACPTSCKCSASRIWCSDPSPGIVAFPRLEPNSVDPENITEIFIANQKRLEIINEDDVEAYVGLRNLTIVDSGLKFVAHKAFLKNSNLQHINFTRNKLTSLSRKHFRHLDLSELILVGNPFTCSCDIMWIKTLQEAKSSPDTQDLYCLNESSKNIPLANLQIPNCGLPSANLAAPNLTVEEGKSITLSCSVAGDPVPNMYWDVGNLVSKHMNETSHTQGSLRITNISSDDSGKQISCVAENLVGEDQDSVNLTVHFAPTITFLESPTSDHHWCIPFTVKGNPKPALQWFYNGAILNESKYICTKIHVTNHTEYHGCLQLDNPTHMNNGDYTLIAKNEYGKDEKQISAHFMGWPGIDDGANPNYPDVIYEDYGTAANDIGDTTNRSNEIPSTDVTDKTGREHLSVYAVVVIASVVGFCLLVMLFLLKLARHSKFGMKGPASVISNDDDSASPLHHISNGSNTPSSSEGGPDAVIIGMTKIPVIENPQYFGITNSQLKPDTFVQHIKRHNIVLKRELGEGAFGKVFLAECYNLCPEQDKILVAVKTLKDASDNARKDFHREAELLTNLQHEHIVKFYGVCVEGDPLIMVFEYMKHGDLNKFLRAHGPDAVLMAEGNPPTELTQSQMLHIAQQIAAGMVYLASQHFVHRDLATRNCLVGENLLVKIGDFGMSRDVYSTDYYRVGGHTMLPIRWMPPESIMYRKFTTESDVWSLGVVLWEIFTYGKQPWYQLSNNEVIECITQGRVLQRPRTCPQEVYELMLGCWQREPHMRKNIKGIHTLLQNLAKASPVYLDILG
Sequence of Melanocortin receptor 4 (P32245 whole entry): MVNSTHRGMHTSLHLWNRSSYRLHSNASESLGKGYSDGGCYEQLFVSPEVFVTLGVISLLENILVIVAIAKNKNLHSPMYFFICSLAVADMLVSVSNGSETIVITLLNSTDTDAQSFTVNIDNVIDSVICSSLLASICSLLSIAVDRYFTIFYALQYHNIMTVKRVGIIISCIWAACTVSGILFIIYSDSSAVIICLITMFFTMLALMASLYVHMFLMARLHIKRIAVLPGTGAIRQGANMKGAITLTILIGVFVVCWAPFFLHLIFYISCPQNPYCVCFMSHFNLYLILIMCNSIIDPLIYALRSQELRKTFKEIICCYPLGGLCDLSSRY
Sequence of Potassium voltage-gated channel subfamily KQT member 2 (O88943 whole entry): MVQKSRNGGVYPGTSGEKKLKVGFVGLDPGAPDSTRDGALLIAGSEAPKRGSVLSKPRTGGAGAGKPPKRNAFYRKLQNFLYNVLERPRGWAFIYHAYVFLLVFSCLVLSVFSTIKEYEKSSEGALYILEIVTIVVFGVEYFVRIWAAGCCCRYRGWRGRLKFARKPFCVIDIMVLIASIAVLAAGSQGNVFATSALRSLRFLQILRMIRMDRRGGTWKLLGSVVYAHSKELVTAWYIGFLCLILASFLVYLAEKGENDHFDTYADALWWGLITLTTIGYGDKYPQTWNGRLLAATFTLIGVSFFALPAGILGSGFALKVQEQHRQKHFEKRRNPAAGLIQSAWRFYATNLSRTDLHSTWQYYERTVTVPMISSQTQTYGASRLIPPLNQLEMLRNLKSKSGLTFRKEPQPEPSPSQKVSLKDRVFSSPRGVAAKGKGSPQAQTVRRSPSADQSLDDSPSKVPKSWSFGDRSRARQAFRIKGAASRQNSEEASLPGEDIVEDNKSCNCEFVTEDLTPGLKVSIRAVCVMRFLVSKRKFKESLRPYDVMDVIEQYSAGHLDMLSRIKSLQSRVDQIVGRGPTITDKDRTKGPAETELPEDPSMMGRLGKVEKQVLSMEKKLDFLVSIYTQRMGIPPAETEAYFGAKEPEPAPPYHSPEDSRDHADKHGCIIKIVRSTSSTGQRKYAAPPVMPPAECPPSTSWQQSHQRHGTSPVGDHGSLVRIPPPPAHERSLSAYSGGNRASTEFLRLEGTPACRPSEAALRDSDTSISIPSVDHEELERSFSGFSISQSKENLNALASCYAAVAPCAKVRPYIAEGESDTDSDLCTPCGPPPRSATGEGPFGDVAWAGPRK
Sequence of Platelet-derived growth factor receptor beta (P09619 whole entry): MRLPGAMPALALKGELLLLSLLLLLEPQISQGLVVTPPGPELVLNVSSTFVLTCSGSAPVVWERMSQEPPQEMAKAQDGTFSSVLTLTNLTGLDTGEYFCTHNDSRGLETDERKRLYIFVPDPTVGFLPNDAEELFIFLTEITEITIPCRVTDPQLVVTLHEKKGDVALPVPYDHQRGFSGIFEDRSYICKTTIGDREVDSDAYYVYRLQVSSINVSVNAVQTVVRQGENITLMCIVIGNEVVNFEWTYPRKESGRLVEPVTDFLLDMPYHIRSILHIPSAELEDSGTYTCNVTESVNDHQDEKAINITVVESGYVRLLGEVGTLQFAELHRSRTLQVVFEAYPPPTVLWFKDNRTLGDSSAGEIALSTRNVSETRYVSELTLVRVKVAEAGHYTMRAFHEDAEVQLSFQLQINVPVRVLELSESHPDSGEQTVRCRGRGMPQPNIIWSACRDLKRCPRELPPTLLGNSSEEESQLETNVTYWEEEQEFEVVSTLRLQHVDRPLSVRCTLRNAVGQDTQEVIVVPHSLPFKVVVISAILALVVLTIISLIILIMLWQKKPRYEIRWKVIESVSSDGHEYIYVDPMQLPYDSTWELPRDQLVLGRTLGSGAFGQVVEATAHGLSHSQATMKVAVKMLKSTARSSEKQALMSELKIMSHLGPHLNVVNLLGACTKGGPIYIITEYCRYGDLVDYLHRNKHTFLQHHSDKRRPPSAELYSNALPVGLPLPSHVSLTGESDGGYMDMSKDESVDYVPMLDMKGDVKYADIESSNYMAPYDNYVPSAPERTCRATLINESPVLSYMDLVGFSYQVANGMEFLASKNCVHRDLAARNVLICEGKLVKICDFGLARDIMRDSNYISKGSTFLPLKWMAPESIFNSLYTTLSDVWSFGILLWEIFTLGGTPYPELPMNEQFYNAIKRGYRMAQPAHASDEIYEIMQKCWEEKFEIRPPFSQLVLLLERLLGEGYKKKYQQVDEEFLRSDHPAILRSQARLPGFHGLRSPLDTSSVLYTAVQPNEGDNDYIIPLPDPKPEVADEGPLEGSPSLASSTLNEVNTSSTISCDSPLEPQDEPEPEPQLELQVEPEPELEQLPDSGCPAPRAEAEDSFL
Sequence of Cyclin-dependent kinase 9 (P50750 whole entry): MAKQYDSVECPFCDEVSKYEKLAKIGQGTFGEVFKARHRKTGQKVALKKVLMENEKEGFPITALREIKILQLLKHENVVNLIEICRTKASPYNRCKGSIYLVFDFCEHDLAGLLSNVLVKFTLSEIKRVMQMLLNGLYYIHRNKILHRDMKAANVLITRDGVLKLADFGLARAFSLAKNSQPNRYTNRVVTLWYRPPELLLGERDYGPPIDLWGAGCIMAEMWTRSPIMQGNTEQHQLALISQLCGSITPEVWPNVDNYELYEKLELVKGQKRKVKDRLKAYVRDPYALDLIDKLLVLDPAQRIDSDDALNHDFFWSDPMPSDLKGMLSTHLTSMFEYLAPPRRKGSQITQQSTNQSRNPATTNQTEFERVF

- IC50 [5]: 1.51 µM (active)
Compound: COc1ccc(-c2cc(C(=O)N3CC(C)CC(C)C3)c3ccccc3n2)cc1OC (centres undefined)

- Ki [6]: > 79.4 µM (inactive)
- Ki [7]: > 79.4 µM (inactive)
- Ki [8]: > 100 µM (inactive)
- Ki (Aurora kinase A): > 63.1 µM (inactive)
- Ki [9]: 79.4 µM (active)
- Ki [10]: > 50.1 µM (inactive)
- Ki [11]: 1.58 µM (active)
- Ki [12]: > 100 µM (inactive)
- Ki [13]: > 100 µM (inactive)
- Ki [14]: 100 µM (active)
- Ki [15]: > 63.1 µM (inactive)
- Ki [16]: 25.1 µM (active)
- Ki [17]: > 100 µM (inactive)
Compound: O=C1NCc2ccc(-c3ccccc3)cc21

Second part, the molecule before the results:

Compound: COC(=O)CSc1nnc(-c2ccc(S(=O)(=O)NCc3ccccc3Cl)cc2)o1
- IC50 [1]: > 64.6 µM (inactive)
- IC50 (Melanocortin receptor 4): > 64.6 µM (inactive)

Compound: CS(=O)(=O)c1ccc(N)c(SSc2cc(S(C)(=O)=O)ccc2N)c1
- EC50 [2]: > 104 µM (inactive)
- IC50 (Large T antigen): 13 µM (active)
- IC50 (Insulin-degrading enzyme): 7.08 µM (active)
- IC50 [3]: 23.9 µM (inactive)
- IC50 [4]: > 55.7 µM (not active)

Compound: O=C(Oc1cccc(C(=S)N2CCOCC2)c1)c1ccc([N+](=O)[O-])cc1[N+](=O)[O-]
- IC50 [1]: > 64.6 µM (inactive)
- IC50 (Melanocortin receptor 4): > 64.6 µM (inactive)

Compound: CN(C)CC1CCn2cc(c3ccccc32)C2=C(C(=O)NC2=O)c2cn(c3ccccc23)CCO1 (centres undefined)
- Ki [6]: > 2 µM (inactive)
- Ki [18]: > 2.51 µM (inactive)
- Ki [19]: > 3.16 µM (inactive)
- Ki [10]: 0.631 µM (active)
- Ki [20]: > 3.98 µM (inactive)
- Ki [12]: 2 µM (active)
- Ki [21]: > 3.98 µM (inactive)
- Ki (Focal adhesion kinase 1): > 6.31 µM (inactive)
- Ki (Activated CDC42 kinase 1): > 3.98 µM (inactive)
- Ki [22]: > 2.51 µM (inactive)
- Ki [23]: > 3.16 µM (inactive)
- Ki [24]: > 3.16 µM (inactive)
- Ki [25]: > 3.16 µM (inactive)
- Ki [26]: 0.158 µM (active)
- Ki [16]: > 3.98 µM (inactive)
- Ki [27]: 0.2 µM (active)

— ChEMBL document CHEMBL1201862, “PubChem BioAssay data set” (2004)
